# Several values for one entry are separate records, joined by “and”; a condition that tells them apart may be missing. Identical values can stand only once.
# What was measured:
# [1] = Shake-flask solubility in 1-octanol and dissolution thermodynamics; assay type: physicochemical; details: T 290.2 K; value = S2 × 10^1
# [2] = Shake-flask solubility in n-hexane and dissolution thermodynamics; assay type: physicochemical; details: for Molar solubility S2 × 10^3 in n-Hexane: value = S2 × 10^3
# Protocol: The solubility of the investigated drugs in 1-octanol and n-hexane was determined by the shake-flask technique. To this end, the glass vials containing the solutions with the excess amount of the compound were placed in an air thermostat and stirred at a predetermined temperature for no less than 24 h (equilibrium state). After this, the suspensions were left for 5 h or more to precipitate the undissolved drug and centrifuged (Biofuge pico, Thermo Electron LED GmbH, Langenselbold, Germany) at a predetermined temperature during 20 min (10,000 rpm). The aliquots of the clear solutions were taken and examined via a spectrophotometer (Cary-50 Varian, Palo Alto, CA, USA, Software Version 3.00 (339)). The molar concentrations of the compounds in the solvents were calculated using calibration curves at the appropriate wavelength characteristic for each substance. The experimental results were reported as an average of at least three replicated experiments with an accuracy of 2–4%. In order to evaluate the thermodynamic parameters of the IPN dissolution in 1-octanol and n-hexane, the molar solubility ( S2 ) was recalculated to the mole fraction ( X2 ) by the equation:(1) X2=M2S2/S2(M1−M2)+1000ρ, where M1 and M2 are the molar masses of IPN and organic solvent, respectively, and ρ (g∙cm^−3) is the density of the pure solvents. The linear functions describing the temperature dependences of the solubility within the temperature interval from 293.2 ± 0.5 K to 313.2 ± 0.5 K for both organic solvents were derived:(2) lnX2=A+B/T
# The apparent solution enthalpies ΔHsol0 were determined by the van’t Hoff equation:(3) ∂(lnX2)/∂T=ΔHsol0/RT^2
# The apparent dissolution Gibbs energies ( ΔGsol ) and entropies ( ΔSsol ) were calculated at a standard temperature of 298.2 K and 310.2 K:(4) ΔGsol298.2/310.2=−RT(lnX2298.2/310.2) (5) ΔGsol298.2/310.2=ΔHsol0−TΔSsol298.2/310.2 where R is the universal gas constant.
# [3] = ΔlogD parameter (logDapp oct/buf − logDapp hex/buf); assay type: physicochemical; details: 310.2 K; pH 7.4; cyclodextrin in buffer phase as in the label
# Protocol: Apparent distribution coefficients of the compounds were measured in two systems: 1-octanol/buffer pH 7.4 and n-hexane/buffer pH 7.4 by the shake-flask technique at 310.2 ± 0.5 K in the absence (for IPN, INZ and iNAM) and in the presence of cyclodextrins (HP-β-CD and M-β-CD) in the aqueous phase (for IPN only). The concentrations of cyclodextrins were: 0.0115 M, 0.025 M and 0.035 M. The experiments were carried out according to the literature. In brief, the following experimental procedure was performed. Aqueous buffer pH 7.4 and organic solvent (1-octanol or n-hexane) were mixed during 48 h to obtain mutually saturated phases. The stock solutions containing the drug were prepared in buffer pH 7.4 saturated with the organic solvent. Both aliquots of the aqueous stock solution and organic solvent were placed in screwed glass vials and mixed at 310.2 ± 0.5 K during 3 days. The concentrations of the stock solutions were approximately 6.0 × 10^−3 M for both systems. […] The drug concentrations were determined using spectrophotometer (Cary-50 Varian, Palo Alto, CA, USA, Software Version 3.00 (339)). […] The distribution coefficients were calculated using the following equation:(6) DappOrg/buf=C2Org/buf⋅V^buf/Org/C2buf/Org⋅V^Org/buf where DappOrg/buf is the distribution coefficient calculated from the concentrations of the compounds expressed in molar scale, C2Org/buf and C2buf/Org are the molar concentrations of the drug in the mutually saturated organic solvent/buffer and buffer/organic solvent phases, respectively, and V^buf/Org and V^Org/buf are the volumes of the saturated buffer and organic solvent phases, respectively. […] As Abraham et al. stated, the difference between the distribution parameters in these systems ( ΔlogD ) can be applied to assess the specific interactions including a hydrogen-bonding impact to the drug transport properties and can be calculated as follows:(7) ΔlogD=logDappoct/buf−logDapphex/buf
# [4] = Shake-flask distribution in the 1-octanol/buffer pH 7.4 system; assay type: physicochemical
# Protocol: (§1) Apparent distribution coefficients of the compounds were measured in two systems: 1-octanol/buffer pH 7.4 and n-hexane/buffer pH 7.4 by the shake-flask technique at 310.2 ± 0.5 K in the absence (for IPN, INZ and iNAM) and in the presence of cyclodextrins (HP-β-CD and M-β-CD) in the aqueous phase (for IPN only). The concentrations of cyclodextrins were: 0.0115 M, 0.025 M and 0.035 M. The experiments were carried out according to the literature. In brief, the following experimental procedure was performed. Aqueous buffer pH 7.4 and organic solvent (1-octanol or n-hexane) were mixed during 48 h to obtain mutually saturated phases. The stock solutions containing the drug were prepared in buffer pH 7.4 saturated with the organic solvent. Both aliquots of the aqueous stock solution and organic solvent were placed in screwed glass vials and mixed at 310.2 ± 0.5 K during 3 days. The concentrations of the stock solutions were approximately 6.0 × 10^−3 M for both systems. The volumes of the phases were 3:3 in the 1-octanol/buffer pH 7.4 systems and 6:3 and 10:3 in the n-hexane/buffer pH 7.4 systems, without and with cyclodextrins, respectively. After mixing, the equilibrium was achieved; the vials were maintained at 310.2 ± 0.5 K, and the phases were separated from each other. The drug concentrations were determined using spectrophotometer (Cary-50 Varian, Palo Alto, CA, USA, Software Version 3.00 (339)). The experiments were carried out at least four-fold with an accuracy of 2–4%. The distribution coefficients were calculated using the following equation:(6) DappOrg/buf=C2Org/buf⋅V^buf/Org/C2buf/Org⋅V^Org/buf where DappOrg/buf is the distribution coefficient calculated from the concentrations of the compounds expressed in molar scale, C2Org/buf and C2buf/Org are the molar concentrations of the drug in the mutually saturated organic solvent/buffer and buffer/organic solvent phases, respectively, and V^buf/Org and V^Org/buf are the volumes of the saturated buffer and organic solvent phases, respectively. In addition, the ΔlogD parameters were estimated taking into account the distribution coefficients both in the 1-octanol/buffer pH 7.4 and n-hexane/buffer H 7.4 systems. As Abraham et al. stated, the difference between the distribution parameters in these systems ( ΔlogD ) can be applied to assess the specific interactions including a hydrogen-bonding impact to the drug transport properties and can be calculated as follows:(7) ΔlogD=logDappoct/buf−logDapphex/buf
# [5] = parameters: method as in PMID 12750026; details: 293.2 K (20 °C); cited from earlier work
# [6] = Shake-flask solubility in n-hexane and dissolution thermodynamics; assay type: physicochemical; details: T 290.2 K; value = S2 × 10^3
# [7] = Shake-flask distribution in the n-hexane/buffer pH 7.4 system; assay type: physicochemical
# Protocol: as §1
# [8] = 310.2 K, cyclodextrin in buffer phase as in the label
# [9] = V(oct):V(buf)= 3:3, molar concentration × 10^3
structure (smiles),measurement,setting,value
"CC(C)NNC(=O)c1ccncc1 [IPN, N′-isopropyl isonicotinic hydrazide]",Molar solubility S2 × 10^1 in 1-Octanol,[1],4.09 ± 0.08 × 10^1 (M)
same,Molar solubility S2 × 10^3 in n-Hexane,[2]; T 293.2 K,0.83 ± 0.03 × 10^3 (M)
same,Molar solubility S2 × 10^3 in n-Hexane,[2]; T 298.2 K,1.07 ± 0.02 × 10^3 (M)
same,Molar solubility S2 × 10^3 in n-Hexane,[2]; T 303.2 K,1.42 ± 0.03 × 10^3 (M)
same,Molar solubility S2 × 10^3 in n-Hexane,[2]; T 310.2 K,2.03 ± 0.04 × 10^3 (M)
same,TΔSsol298.2,"[2]; n-hexane, 298.2 K",4.3 ± 0.19 kcal/mol
same,ΔGsol298.2,"[2]; n-hexane, 298.2 K",5.26 ± 0.096 kcal/mol
same,ζHsol,"[2]; n-hexane, 298.2 K (first value of cell)",69.0%
same,ΔHsol298.2/310.2,"[2]; n-hexane, 298.2 K and 310.2 K",9.56 ± 0.22 kcal/mol
same,TΔSsol310.2,"[2]; n-hexane, 310.2 K",4.49 ± 0.19 kcal/mol
same,ΔGsol310.2,"[2]; n-hexane, 310.2 K",5.07 ± 0.096 kcal/mol
same,ζHsol,"[2]; n-hexane, 310.2 K (second value of cell)",68.0%
same,ΔlogD,[3],3.33
same,Dappoct/buff,[4]; [8],2.651 ± 0.093
same,logDappoct/buff,[4]; [8],0.423 ± 0.015 and 0.423
same,Molar concentration C2 buf/oct ∙10^3 (aqueous phase),[4]; [9],1.69 ∙10^3
same,Molar concentration C2 oct/buf ∙10^3 (organic phase),[4]; [9],4.48 ∙10^3
same,log Dexpoct/pH7.4,[5],0.35 ± 0.10
same,Molar solubility S2 × 10^3 in n-Hexane,[6],0.72 ± 0.01 × 10^3 (M)
same,logDapphex/buff,[7]; [8],−2.907
same,Dapphex/buff ·10^4,"[7]; 310.2 K, value = D·10^4, cyclodextrin in buffer phase as in the label",12.400 ± 0.191 ·10^4
same,Molar concentration C2 buf/hex ∙10^3 (aqueous phase),"[7]; V(hex):V(buf)= 6:3 without and 10:3 with cyclodextrins, molar concentration × 10^3",6.46 ∙10^3
same,Molar concentration C2 hex/buf ∙10^5 (organic phase),"[7]; V(hex):V(buf)= 6:3 without and 10:3 with cyclodextrins, molar concentration × 10^5",1.60 ∙10^5
